{
  "source": "paper PMC6934184",
  "about": "“Selective DNA-PKcs inhibition extends the therapeutic index of localized radiotherapy and chemotherapy” (The Journal of Clinical Investigation, 2019)",
  "target": "T1, GRK5 (Homo sapiens, UniProt P34947)",
  "T1 construct": "purchased Thermo Fisher Scientific (Life Technologies) SelectScreen",
  "T1 sequence (P34947 whole entry)": "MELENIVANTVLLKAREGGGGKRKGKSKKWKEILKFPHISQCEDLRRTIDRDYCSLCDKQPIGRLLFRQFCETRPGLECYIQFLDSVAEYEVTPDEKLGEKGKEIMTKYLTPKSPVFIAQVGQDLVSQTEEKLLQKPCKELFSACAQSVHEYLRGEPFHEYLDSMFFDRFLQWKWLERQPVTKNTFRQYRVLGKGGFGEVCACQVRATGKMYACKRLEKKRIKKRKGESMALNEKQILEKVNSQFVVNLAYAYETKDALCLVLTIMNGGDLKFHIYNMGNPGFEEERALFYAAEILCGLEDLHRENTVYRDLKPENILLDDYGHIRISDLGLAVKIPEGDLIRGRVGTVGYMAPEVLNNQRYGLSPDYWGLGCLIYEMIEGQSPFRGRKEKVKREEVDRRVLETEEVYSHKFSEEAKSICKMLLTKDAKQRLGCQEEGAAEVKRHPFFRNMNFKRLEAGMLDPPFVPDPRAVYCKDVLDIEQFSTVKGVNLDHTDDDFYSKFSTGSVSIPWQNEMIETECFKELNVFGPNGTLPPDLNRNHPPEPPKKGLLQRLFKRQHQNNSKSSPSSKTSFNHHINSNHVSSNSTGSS",
  "assay": "SelectScreen Z'LYTE",
  "assay_type": "biochemical",
  "method_in_brief": "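Percent values come from Thermo SelectScreen profiling of NU5455, combining activity and binding assays. CSF1R was run in Z'LYTE format at Km app ATP, and CAMK1 in Adapta format with ATP listed at 10.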",
  "data": [
    {"smiles": "CN(C(=O)CN1CCOCC1)c1ccc2sc3c(-c4cccc5c(=O)cc(N6CC7CCC(C6)O7)oc45)cccc3c2c1", "note": "[NU5455]", "values": [
      {"measurement": "inhibition at 1 µM", "value": -3.2, "unit": "%"}
    ]}
  ]
}
